The text below walks through data of ChEMBL document CHEMBL1143066, “Characterization and optimization of selective, nonpeptidic inhibitors of cathepsin S with an unprecedented binding mode” (J Med Chem, 2007).

Assay [1] is filed under the species Homo sapiens. The assay can be described thus: Selectivity for cathepsin S over cathepsin L.
For assay [2], the species on record is Homo sapiens. As to the kind of experiment: Selectivity for cathepsin S over cathepsin K.
Assay [3] is filed under the species Homo sapiens. As to the kind of experiment: Selectivity for cathepsin S over cathepsin B.

Molecules are shown by their SMILES.

As to `CC(C)Cc1ccc(-c2ccccc2OCC=O)c(F)c1F`, the Activity is > 1000 in the assay filed under Homo sapiens [1], > 100 in the assay filed under Homo sapiens [2] and > 1000 in the assay listed under Homo sapiens [3].
